Laboratory results published in patent US4874752A, “Benzoquinone derivatives and production thereof” (Takeda Chemical Industries, Ltd., priority 1982, dated 1989).
Structures can show the parent of a compound that is named as a salt.

Biological target: T1, protocollagen-proline hydroxylase (Gallus gallus, UniProt P16924)
T1 construct: partially purified enzyme preparation obtained from chick embryos; from tissue; host or cells: chick embryos (partially purified enzyme)
T1 sequence (P16924 1-516): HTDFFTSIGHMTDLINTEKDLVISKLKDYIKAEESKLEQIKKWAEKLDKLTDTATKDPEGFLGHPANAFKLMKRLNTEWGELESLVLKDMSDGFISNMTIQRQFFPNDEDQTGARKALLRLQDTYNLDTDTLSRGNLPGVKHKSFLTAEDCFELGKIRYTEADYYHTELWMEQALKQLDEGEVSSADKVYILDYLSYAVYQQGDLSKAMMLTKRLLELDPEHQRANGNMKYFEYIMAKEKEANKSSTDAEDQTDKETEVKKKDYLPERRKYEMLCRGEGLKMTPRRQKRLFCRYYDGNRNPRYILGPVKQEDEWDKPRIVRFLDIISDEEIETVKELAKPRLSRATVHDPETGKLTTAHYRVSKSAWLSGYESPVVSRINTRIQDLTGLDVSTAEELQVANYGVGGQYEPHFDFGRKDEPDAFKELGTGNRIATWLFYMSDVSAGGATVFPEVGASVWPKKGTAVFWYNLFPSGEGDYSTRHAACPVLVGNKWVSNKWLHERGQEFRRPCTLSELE
T1 sequence (P09102 23-515 partner): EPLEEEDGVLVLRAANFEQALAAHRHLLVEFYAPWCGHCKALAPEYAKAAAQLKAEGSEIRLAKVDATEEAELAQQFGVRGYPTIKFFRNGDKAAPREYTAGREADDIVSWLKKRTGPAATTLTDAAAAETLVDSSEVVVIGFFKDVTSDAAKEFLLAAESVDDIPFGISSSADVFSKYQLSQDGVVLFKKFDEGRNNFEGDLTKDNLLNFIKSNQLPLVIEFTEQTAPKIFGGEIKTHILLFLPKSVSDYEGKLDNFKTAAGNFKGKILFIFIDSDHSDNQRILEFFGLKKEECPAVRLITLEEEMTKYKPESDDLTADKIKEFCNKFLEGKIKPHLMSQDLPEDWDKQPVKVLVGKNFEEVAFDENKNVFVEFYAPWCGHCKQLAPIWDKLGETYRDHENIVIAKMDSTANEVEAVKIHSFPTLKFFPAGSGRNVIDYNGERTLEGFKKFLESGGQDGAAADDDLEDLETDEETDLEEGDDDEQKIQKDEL
Experiment: Inhibitory activity of protocollagen-proline hydroxylase
Format: biochemical, chick embryos
Conditions: for inhibition at 10 µM / Inhibition of protocollagen-proline hydroxylase: 10 μM
Text: Determination of this inhibitory activity was made by the method of R. E. Rhoads et al. [Methods in Enzymology XVII B, 306 (1971)] using a partially purified enzyme preparation obtained from chick embryos in accordance with the methods of K. I. Kivirriko et al. and J. Halme et al. [J. Biol, Chem. 242, 4007 (1967) and Biochim. Biophys. Acta 198, 460 (1967)] and, as a substrate, (Pro-Pro-Gly)5.4H2 O[prepared by the Protein Research Foundation, Osaka]. In this procedure, the partially purified enzyme was used in an amount of 100 μg as protein.

SMILES | inhibition at 20 µM [%] | inhibition at 10 µM [%] | inhibition at 50 µM [%] | further results
COC1=C(OC)C(=O)C(CCCCCCCCCC(=O)N2CSCC2C(=O)O)=C(C)C1=O (stereo not drawn) | 35 | – | – | –
COC1=C(OC)C(=O)C(CN2CCOCC2)=C(C)C1=O | 78 | – | – | –
COC1=C(OC)C(=O)C(CCCCCCCCCCN2CCOCC2)=C(C)C1=O | – | – | – | inhibition at 25 µM (25 μM): 30%
COC1=C(OC)C(=O)C(CCOc2ccc(/C=C/C(=O)O)cc2)=C(C)C1=O | 100 | 99.9 | 100 | inhibition at 2.5 µM: 62%; inhibition at 5 µM: 72%
COC1=C(OC)C(=O)C(CCOc2ccc(CC(=O)O)cc2)=C(C)C1=O | 100 | 100 | 100 | inhibition at 2.5 µM: 64%; inhibition at 5 µM: 74%; Inhibition of protocollagen-proline hydroxylase: 82%
COC1=C(OC)C(=O)C(COc2ccc(C(C)C(=O)O)cc2)=C(C)C1=O (stereo not drawn) | 100 | 100 | 100 | inhibition at 2.5 µM: 70%; inhibition at 5 µM: 75%; Inhibition of protocollagen-proline hydroxylase: 92%
COC(=O)/C=C/C=C/C=C/C=C/C1=C(C)C(=O)C(OC)=C(OC)C1=O | 67 | 38 | 76 | –
COC1=C(OC)C(=O)C(c2nc3cc(C(C)C(=O)O)ccc3o2)=C(C)C1=O (stereo not drawn) | 76 | 54 | 84 | –
COC1=C(OC)C(=O)C(CC=C(C)COc2ccc(CC(=O)O)cc2)=C(C)C1=O [drawing 20] | 48 | 34 | 92 | –
COC1=C(OC)C(=O)C(/C=C/C(=O)O)=C(C)C1=O [drawing 25] | 46 | 37 | 68 | inhibition at 2.5 µM: 0%; inhibition at 5 µM: 22%
COC1=C(OC)C(=O)C(/C=C/C(C)=O)=C(C)C1=O [drawing 26] | 92 | 85 | 92 | inhibition at 2.5 µM: 51%; inhibition at 5 µM: 72%
COC1=C(OC)C(=O)C(CCC(=O)N[C@@H](CCCNC(=N)N)C(=O)O)=C(C)C1=O [m:0, n:2, Z:COArg (salt of acetic acid), 3-(2,3-dimethoxy-5-methyl-1,4-benzoquinon-6-yl)propionyl-L-arginine] | 56 | – | – | –
COC1=C(OC)C(=O)C(CCC(=O)N[C@@H](CCC(=O)O)C(=O)O)=C(C)C1=O [m:0, n:2, Z:COGlu, 3-(2,3-dimethoxy-5-methylbenzoquinon-6-yl)propionyl-L-glutamic acid] | 20 | – | – | –
COC1=C(OC)C(=O)C(CCC(=O)NCC(=O)O)=C(C)C1=O [m:0, n:2, Z:COGly, 3-(2,3-dimethoxy-5-methyl-1,4-benzoquinone-6-yl)propionyl-glycine] | 46 | – | – | –
COC1=C(OC)C(=O)C(CCC(=O)N2CCC[C@H]2C(=O)O)=C(C)C1=O [m:0, n:2, Z:COPro, 3-(2,3-dimethoxy-5-methyl-1,4-benzoquinon-6-yl)propionyl-L-proline] | 35 | – | – | –
COC1=C(OC)C(=O)C(CCC(=O)N[C@@H](Cc2ccc(O)cc2)C(=O)O)=C(C)C1=O [m:0, n:2, Z:COTyr, 3-(2,3-dimethoxy-5-methyl-1,4-benzoquinon-6-yl)propionyl-L-tyrosine] | 35 | – | – | –
COC1=C(OC)C(=O)C(CCC(=O)N[C@@H](C)C(=O)O)=C(C)C1=O [m:0, n:2, Z:CoAla, 3-(2,3-dimethoxy-5-methyl-1,4-benzoquinon-6-yl)propionyl-L-alanine] | 32 | – | – | –
COC1=C(OC)C(=O)C(CCCCCCCCCC(=O)N[C@@H](CCCNC(=N)N)C(=O)O)=C(C)C1=O [m:0, n:9, Z:COArg (salt of acetic acid), 10-(2,3-dimethoxy-5-methyl-1,4-benzoquinon-6-yl)decanoyl-L-arginine] | 52 | – | – | –
COC1=C(OC)C(=O)C(CCCCCCCCCC(=O)N[C@H]2C(O)O[C@H](CO)[C@@H](O)[C@@H]2O)=C(C)C1=O (stereo partly drawn) [m:0, n:9, Z:COGlcN, N-[10-(2,3-dimethoxy-5-methyl-1,4-benzoquinon-6-yl)decanoyl]glucosamine] | 52 | – | – | –
COC1=C(OC)C(=O)C(CCCCCCCCCC(=O)NC(CCC(=O)O)C(=O)O)=C(C)C1=O (stereo not drawn) [m:0, n:9, Z:COGlu] | 37 | – | – | –
COC1=C(OC)C(=O)C(CCCCCCCCCC(=O)N[C@@H](Cc2c[nH]cn2)C(=O)O)=C(C)C1=O [m:0, n:9, Z:COHis, 10-(2,3-dimethoxy-5-methyl-1,4-benzoquinon-6-yl)decanoyl-L-histidine] | 52 | – | – | –
COC1=C(OC)C(=O)C(CCCCCCCCCC(=O)N[C@@H](CCCCN)C(=O)O)=C(C)C1=O [m:0, n:9, Z:COLys, 10-(2,3-dimethoxy-5-methyl-1,4-benzoquinon-6-yl)decanoyl-L-lysine] | 25 | – | – | –
COC1=C(OC)C(=O)C(CCCCCCCCCC(=O)N[C@@H](CCSC)C(=O)O)=C(C)C1=O [m:0, n:9, Z:COMet, 10-(2,3-dimethoxy-5-methyl-1,4-benzoquinon-6-yl)decanoyl-L-methionine] | 38 | – | – | –
COC1=C(OC)C(=O)C(CCCCCCCCCC(=O)OC[C@H]2OC(O)[C@H](NC(C)=O)[C@@H](O[C@H](C)C(=O)O)[C@@H]2O)=C(C)C1=O (stereo partly drawn) [m:0, n:9, Z:COMurNAc, N-acetyl-6O-[10-(2,3-dimethoxy-5-methyl-1,4-benzoquinon-6-yl)decanoyl]muraminic acid] | 32 | – | – | –
COC1=C(OC)C(=O)C(CCCCCCCCCC(=O)N[C@H](Cc2ccccc2)C(=O)O)=C(C)C1=O [m:0, n:9, Z:COPhe, 10-(2,3-dimethoxy-5-methyl-1,4-benzoquinon-6-yl)decanoyl-D-phenylalanine] | 35 | – | – | –
COC1=C(OC)C(=O)C(CCCCCCCCCC(=O)N[C@@H](Cc2c[nH]c3ccccc23)C(=O)O)=C(C)C1=O [m:0, n:9, Z:COTrp, 10-(2,3-dimethoxy-5-methyl-1,4-benzoquinon-6-yl)decanoyl-L-tryptophan] | 15 | – | – | –
